Bridge positions count the residues as written; N and C are the ends. Ends that are not written are not given here.

The values below come from patent EP0969854B1, “INHIBITION OF SIGNAL TRANSDUCTION BY THE BINDING OF NON-PHOSPHORYLATED COMPOSITIONS” (GEORGETOWN UNIVERSITY, priority 1996, dated 2006).

The test system of one experiment is cell proliferation. Conditions: cited from earlier work.
The next experiment concerns Grb2 SH2 domain. Put plainly: Surface plasmon resonance (Biacore): inhibition of GST-Grb2 binding to immobilised SHC phosphopeptide. The conditions noted are these: for inhibition of Grb2 binding to the SHC phosphopeptide: peptide at 50 µM; for inhibiting activity: peptide at 500 µM. From the text: The G1 peptide (CELYENVGMYC [disulfide bonded]) was used as an inhibitor of the interaction of the Grb2 with a SHC phosphopeptide in surface plasmon resonance (Biacore) experiments. The SHC phosphopeptide was attached to the solid surface by incorporation of a biotin at the N-terminus as described in Pelicci, G., et al., "The motogenic and mitogenic responses to HGF are amplified by the Shc adaptor protein," Oncogene, 10: 1631-1638, 1995. This biotinylated phospho-SHC peptide was then bound to the streptavidin on the surface of SA5 chips (Pharmacia-Biacore). The binding was conducted at a 2nM and 5 µl/minute for 10 minutes. The peptides were mixed with 200 nM GST-Grb2 in HBS buffer (Pharmacia Biacore) and allowed to bind for 10 minutes at a flow rate of 5 µl/minute. The Ru change at equilibrium was calculated and the percent of control (no added peptide) binding was calculated.
The G1 peptide was compared to SHC phosphopeptide (DDPSpYVNVQ), G1C-S (SELYENVGMYS), which is similar to G1 but wherein the cysteines are replaced with serines, and SHC control peptide (DDPSYVNVQ), in which the tyrosine is not phosphorated.
Songyang et al. Mol. Cell Biol., 14:2777-2785 (1994). The requirement of these amino acids in the G1 peptide sequence was tested by synthesizing peptides with alanine substitutions at these positions. G1.4Y-A contains an alanine substitution in place of the tyrosine at position 4 (CELAENVGMYC) and G16N-A contains an alanine substitution for the asparagine at position 6 (CELYEAVGMYC). […] The binding of peptide to the Grb2 SH2 domain was measured by surface plasmon resonance (Pharmacia Biacore). The percent inhibition was calculated by comparison of the Rueq in the presence of peptide with the Rueq with no inhibiting peptide present.

Experiment [1] concerns the target intact GST-Grb2 fusion protein (UniProt P62993). Kind of experiment: SPR competition in solution, SHC phosphopeptide and G1 for GST-Grb2 compared directly (Figure 6).
UniProt P62993, sequence (P62993 whole entry, the tested form may be a part): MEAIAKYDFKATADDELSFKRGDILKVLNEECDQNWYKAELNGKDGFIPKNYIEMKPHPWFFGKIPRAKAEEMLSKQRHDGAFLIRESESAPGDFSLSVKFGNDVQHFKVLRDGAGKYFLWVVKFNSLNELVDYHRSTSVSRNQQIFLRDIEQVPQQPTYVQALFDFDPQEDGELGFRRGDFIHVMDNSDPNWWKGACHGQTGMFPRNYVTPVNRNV

For the molecule AcpYEEIE, the “block of cell proliferation” value in the experiment with cell proliferation is “lack of effect”. Regarding “CELAENVGMYC [G1.4Y-A, alanine substitution in place of the tyrosine at position 4]”, in the experiment with Grb2 SH2 domain, the “inhibition of Grb2 binding to the SHC phosphopeptide” value was “No inhibition” and the inhibiting activity result is recorded as “limited activity”. Consider “CELYEAVGMYC [G16N-A, alanine substitution for the asparagine at position 6]”, for which, in the experiment with Grb2 SH2 domain, the “inhibition of Grb2 binding to the SHC phosphopeptide” value is on record as “No inhibition” and the inhibiting activity result is recorded as “limited activity”.

B1: G1 peptide (… [disulfide bonded]) (peptide)
peptide: CELYENVGMYC
modifications: disulfide 1-11
Take B1: the fold difference in affinity against SHC phosphopeptide in experiment [1] turned out to be 10 fold.
